Assay results taken from patent US20120252741A1, “NOVEL SEMI-SYNTHETIC GLYCOPEPTIDES AS ANTIBACTERIAL AGENTS” (priority 2008, published 2012).
Values after ≈ are worked out from the molar mass of the structure shown. Like-named read-outs stand apart in the source and are kept apart here.

Key:
Format in all cases: cell-based
[1] = test system: Enterococcus faecium 752 (VRE, Van A); assay: MIC, broth microdilution, EFcm 752; conditions: VRE, Van A, class symbols, read-out: MIC E FCM 752
Method: (§1) Antibacterial activity in vitro is investigated by broth microdilution method in Meuller-Hinton broth as recommended by NCCLS. All strains tested are clinical isolates either sensitive or resistant to natural glycopeptides. MIC values were determined using the CLSI-recommended broth microdilution procedure (Clinical and Laboratory Standards Institute, Methods for Dilution Antimicrobial Susceptibility Tests for Bacteria That Grow Aerobically; Approved Standard-Seventh Edition.). Automated liquid handlers (Multidrop 384, Labsystems, Helsinki, Finland; Biomek 2000 and Multimek 96, Beckman Coulter, Fullerton Calif.) were used to conduct serial dilutions and liquid transfers. The MIC value for vancomycin is given for comparison. The abbreviations for organisms tested are as follow: SA 100—Staphylococcus aureus 100 (ATCC 29213); SA 757—Staphylococcus aureus 757 (MRSA); SA 2012—Staphylococcus aureus 2012 (VISA); SE 835—Staphylococcus epidermidis 835; SE 831—Staphylococcus epidermidis 831 (MRSE); EFc 101—Enterococcus faecalis 101 (ATCC 29212); EFc 848—Enterococcus faecalis 848 (VRE, Van A); EFcm 800—Enterococcus faecium 800; EFcm 752—Enterococcus faecium 752 (VRE, Van A); SPNE 1195—Streptococcus pneumoniae 1195 (ATCC 49619); SPY 712—Streptococcus pyogenes 712.

[2] = test system: Staphylococcus epidermidis 835; assay: MIC, broth microdilution, SE 835; conditions: Staphylococcus epidermidis, 835, class symbols, read-out: MIC SE 835
Method: as §1

[3] = test system: Staphylococcus aureus 100 (ATCC 29213); assay: MIC, broth microdilution, SA 100; conditions: Staphylococcus aureus, ATCC29213, class symbols, read-out: MIC SA 100
Method: as §1

Enterococcus faecium 800 = assay: MIC, broth microdilution, EFcm 800; conditions: Enterococcus faecium, 800, class symbols, read-out: MIC E FCM 800
Method: as §1

[4] = test system: Staphylococcus aureus 757 (MRSA); assay: MIC, broth microdilution, SA 757; conditions: read-out: MIC SA 757
Method: as §1

[5] = test system: Staphylococcus aureus 2012 (VISA); assay: MIC, broth microdilution, SA 2012; conditions: read-out: MIC SA 2012
Method: as §1

[6] = test system: Streptococcus pneumoniae 1195 (ATCC 49619); assay: MIC, broth microdilution, SPNE 1195; conditions: Streptococcus pneumoniae, ATCC49619, class symbols, read-out: MIC S PNE 1195
Method: as §1

[7] = test system: Staphylococcus epidermidis 831 (MRSE); assay: MIC, broth microdilution, SE 831; conditions: Staphylococcus epidermidis, read-out: MIC SE 831
Method: as §1

[8] = test system: Enterococcus faecalis 101 (ATCC 29212); assay: MIC, broth microdilution, EFc 101; conditions: Enterococcus faecalis, ATCC29212, class symbols, read-out: MIC E FC 101
Method: as §1

[9] = test system: Streptococcus pyogenes 712; assay: MIC, broth microdilution, SPY 712; conditions: Streptococcus pyogenes, 712, class symbols, read-out: MIC S PYO 712
Method: as §1

[10] = test system: Enterococcus faecalis 848 (VRE, Van A); assay: MIC, broth microdilution, EFc 848; conditions: VRE, Van A, class symbols, read-out: MIC E FC 848
Method: as §1

[11] = Table 2, in the presence of 0.002% Polysorbate 80
[12] = Table 2, in the presence of 0.002% Polysorbate 80, class symbols

Structure (SMILES)	MIC [1, 11] [µg/mL]	MIC [2, 11] [µg/mL]	MIC [3, 11] [µg/mL]	MIC (Enterococcus faecium 800; [11]) [µg/mL]	MIC [4, 12] [µg/mL]	MIC [5, 12] [µg/mL]	MIC [6, 11] [µg/mL]	MIC [7, 12] [µg/mL]	MIC [8, 11] [µg/mL]	MIC [9, 11] [µg/mL]	MIC [10, 11] [µg/mL]	MIC ([1]; Table 1) [µg/mL]	MIC ([2]; Table 1) [µg/mL]	MIC ([3]; Table 1) [µg/mL]	MIC (Enterococcus faecium 800; Table 1) [µg/mL]	MIC ([4]; Table 1, class symbols) [µg/mL]	MIC ([5]; Table 1, class symbols) [µg/mL]	MIC ([6]; Table 1) [µg/mL]	MIC ([7]; Table 1, class symbols) [µg/mL]	MIC ([8]; Table 1) [µg/mL]	other results
CNCCOCc1cc(OCCNC)cc(C(=O)NC(=O)C[C@@H]2NC(=O)[C@H](NC(=O)[C@@H](CC(C)C)NC)[C@H](O)c3ccc(c(Cl)c3)Oc3cc4cc(c3O[C@@H]3O[C@H](CO)[C@@H](O)[C@H](O)[C@H]3O[C@H]3C[C@](C)(N)[C@H](O)[C@H](C)O3)Oc3ccc(cc3Cl)[C@@H](O)[C@@H]3NC(=O)[C@H](NC(=O)[C@@H]4NC2=O)c2ccc(O)c(c2)-c2c(O)cc(O)cc2[C@@H](C(=O)NC2C4CC5CC(C4)CC2C5)NC3=O)c1 (some centres unmarked) [Compound 153]	> 16	0.01 to 0.5	0.01 to 0.5	0.01 to 0.5	0.01 to 0.5	0.5 to 1	0.01 to 0.5	0.01 to 0.5	0.01 to 0.5	0.01 to 0.5	> 16	–	–	–	–	–	–	–	–	–	–
CN[C@H](CC(C)C)C(=O)N[C@H]1C(=O)N[C@@H](CC(=O)NS(=O)(=O)c2ccc(OCCOC)cc2)C(=O)N[C@H]2C(=O)N[C@H]3C(=O)N[C@H](C(=O)N[C@H](C(=O)NC4C5CC6CC(C5)CC4C6)c4cc(O)cc(O)c4-c4cc3ccc4O)[C@H](O)c3ccc(c(Cl)c3)Oc3cc2cc(c3O[C@@H]2O[C@H](CN)[C@@H](O)[C@H](O)[C@H]2O)Oc2ccc(cc2Cl)[C@H]1O (some centres unmarked) [Compound 101]	–	–	–	–	–	–	–	–	–	–	–	0.01 to 0.5 (≈ 0.00605 to 0.303 µM)	0.01 to 0.5 (≈ 0.00605 to 0.303 µM)	0.01 to 0.5 (≈ 0.00605 to 0.303 µM)	0.01 to 0.5 (≈ 0.00605 to 0.303 µM)	0.01 to 0.5 (≈ 0.00605 to 0.303 µM)	0.01 to 0.5 (≈ 0.00605 to 0.303 µM)	0.01 to 0.5 (≈ 0.00605 to 0.303 µM)	0.01 to 0.5 (≈ 0.00605 to 0.303 µM)	0.01 to 0.5 (≈ 0.00605 to 0.303 µM)	MIC ([9]; Table 1): 0.01 to 0.5 µg/mL (≈ 0.00605 to 0.303 µM); MIC ([10]; Table 1): 1 to 2 µg/mL (≈ 0.605 to 1.21 µM)
CCOCCOCCOc1ccc(S(=O)(=O)NC(=O)C[C@@H]2NC(=O)[C@H](NC(=O)[C@@H](CC(C)C)NC)[C@H](O)c3ccc(c(Cl)c3)Oc3cc4cc(c3O[C@@H]3O[C@H](CN)[C@@H](O)[C@H](O)[C@H]3O)Oc3ccc(cc3Cl)[C@@H](O)[C@@H]3NC(=O)[C@H](NC(=O)[C@@H]4NC2=O)c2ccc(O)c(c2)-c2c(O)cc(O)cc2[C@@H](C(=O)NC2C4CC5CC(C4)CC2C5)NC3=O)cc1 (some centres unmarked) [Compound 103]	–	–	–	–	–	–	–	–	–	–	–	1 to 2 (≈ 0.585 to 1.17 µM)	0.01 to 0.5 (≈ 0.00585 to 0.292 µM)	0.5 to 1 (≈ 0.292 to 0.585 µM)	0.01 to 0.5 (≈ 0.00585 to 0.292 µM)	0.01 to 0.5 (≈ 0.00585 to 0.292 µM)	1 to 2 (≈ 0.585 to 1.17 µM)	0.5 to 1 (≈ 0.292 to 0.585 µM)	0.01 to 0.5 (≈ 0.00585 to 0.292 µM)	0.01 to 0.5 (≈ 0.00585 to 0.292 µM)	MIC ([9]; Table 1): 0.01 to 0.5 µg/mL (≈ 0.00585 to 0.292 µM); MIC ([10]; Table 1): 2 to 4 µg/mL (≈ 1.17 to 2.34 µM)
CN[C@H](CC(C)C)C(=O)N[C@H]1C(=O)N[C@@H](CC(=O)NC(=O)c2ccc(OCCN)c(OCCN)c2)C(=O)N[C@H]2C(=O)N[C@H]3C(=O)N[C@H](C(=O)N[C@H](C(=O)NC4C5CC6CC(C5)CC4C6)c4cc(O)cc(O)c4-c4cc3ccc4O)[C@H](O)c3ccc(c(Cl)c3)Oc3cc2cc(c3O[C@@H]2O[C@H](CO)[C@@H](O)[C@H](O)[C@H]2O)Oc2ccc(cc2Cl)[C@H]1O (some centres unmarked) [Compound 159]	4 to 8	0.5 to 1	0.5 to 1	0.01 to 0.5	0.5 to 1	0.5 to 1	0.5 to 1	0.01 to 0.5	0.5 to 1	0.01 to 0.5	> 16	–	–	–	–	–	–	–	–	–	–
CN[C@H](CC(C)C)C(=O)N[C@H]1C(=O)N[C@@H](CC(=O)NC(=O)c2ccc(OCCN)c(OCCN)c2)C(=O)N[C@H]2C(=O)N[C@H]3C(=O)N[C@H](C(=O)N[C@H](C(=O)NC4C5CC6CC(C5)CC4C6)c4cc(O)cc(O)c4-c4cc3ccc4O)[C@H](O)c3ccc(c(Cl)c3)Oc3cc2cc(c3O[C@@H]2O[C@H](CO)[C@@H](O)[C@H](O)[C@H]2O[C@H]2C[C@](C)(N)[C@H](O)[C@H](C)O2)Oc2ccc(cc2Cl)[C@H]1O (some centres unmarked) [Compound 165]	2 to 4	0.5 to 1	0.01 to 0.5	0.01 to 0.5	0.01 to 0.5	1 to 2	0.01 to 0.5	0.01 to 0.5	0.01 to 0.5	0.01 to 0.5	> 16	–	–	–	–	–	–	–	–	–	–
CCCCOCC(=O)NC(=O)C[C@@H]1NC(=O)[C@H](NC(=O)[C@@H](CC(C)C)NC)[C@H](O)c2ccc(c(Cl)c2)Oc2cc3cc(c2O[C@@H]2O[C@H](CO)[C@@H](O)[C@H](O)[C@H]2O[C@H]2C[C@](C)(N)[C@H](O)[C@H](C)O2)Oc2ccc(cc2Cl)[C@@H](O)[C@@H]2NC(=O)[C@H](NC(=O)[C@@H]3NC1=O)c1ccc(O)c(c1)-c1c(O)cc(O)cc1[C@@H](C(=O)NC1C3CC4CC(C3)CC1C4)NC2=O (some centres unmarked) [Compound 44]	–	–	–	–	–	–	–	–	–	–	–	> 16	0.01 to 0.5 (≈ 0.00589 to 0.295 µM)	0.5 to 1 (≈ 0.295 to 0.589 µM)	0.01 to 0.5 (≈ 0.00589 to 0.295 µM)	0.5 to 1 (≈ 0.295 to 0.589 µM)	2 to 4 (≈ 1.18 to 2.36 µM)	0.01 to 0.5 (≈ 0.00589 to 0.295 µM)	0.01 to 0.5 (≈ 0.00589 to 0.295 µM)	0.5 to 1 (≈ 0.295 to 0.589 µM)	MIC ([9]; Table 1): 0.01 to 0.5 µg/mL (≈ 0.00589 to 0.295 µM); MIC ([10]; Table 1): > 16 µg/mL
CCCCCCC(C)C(=O)NC(=O)C[C@@H]1NC(=O)[C@H](NC(=O)[C@@H](CC(C)C)NC)[C@H](O)c2ccc(c(Cl)c2)Oc2cc3cc(c2O[C@@H]2O[C@H](CO)[C@@H](O)[C@H](O)[C@H]2O[C@H]2C[C@](C)(N)[C@H](O)[C@H](C)O2)Oc2ccc(cc2Cl)[C@@H](O)[C@@H]2NC(=O)[C@H](NC(=O)[C@@H]3NC1=O)c1ccc(O)c(c1)-c1c(O)cc(O)cc1[C@@H](C(=O)NC1C3CC4CC(C3)CC1C4)NC2=O (some centres unmarked) [Compound 46]	0.01 to 0.5	0.01 to 0.5	0.01 to 0.5	0.01 to 0.5	0.01 to 0.5	2 to 4	0.01 to 0.5	0.01 to 0.5	0.01 to 0.5	0.01 to 0.5	2 to 4	–	–	–	–	–	–	–	–	–	–
